Data as given in ChEMBL document CHEMBL4219026, “A Cereblon Modulator (CC-220) with Improved Degradation of Ikaros and Aiolos” (J Med Chem, 2018).
Active and inactive are the calls of the source. No cut-off for these calls is given here.

How the values were obtained:
[1] = molecular target: Protein cereblon/Eukaryotic peptide chain release factor GTP-binding subunit ERF3A (Homo sapiens) (UniProt Q96SW2+P15170); assay: Induction of cereblon-mediated GSPT1 degradation in human DF15 cells expressing ePL-tagged GSPT1 at 0.0005 to 10 uM after 4 hrs by luminometric analysis; assay type: cell-based
[2] = molecular target: Cereblon/Casein kinase I alpha (Homo sapiens) (UniProt P48729+Q96SW2); assay: Induction of cereblon-mediated CK1alpha (unknown origin) degradation in at 0.0005 to 10 uM after 4 hrs by cell-based chemiluminescent assay
Cereblon/Casein kinase I alpha (Homo sapiens), sequence (P48729 2-337 limits assumed): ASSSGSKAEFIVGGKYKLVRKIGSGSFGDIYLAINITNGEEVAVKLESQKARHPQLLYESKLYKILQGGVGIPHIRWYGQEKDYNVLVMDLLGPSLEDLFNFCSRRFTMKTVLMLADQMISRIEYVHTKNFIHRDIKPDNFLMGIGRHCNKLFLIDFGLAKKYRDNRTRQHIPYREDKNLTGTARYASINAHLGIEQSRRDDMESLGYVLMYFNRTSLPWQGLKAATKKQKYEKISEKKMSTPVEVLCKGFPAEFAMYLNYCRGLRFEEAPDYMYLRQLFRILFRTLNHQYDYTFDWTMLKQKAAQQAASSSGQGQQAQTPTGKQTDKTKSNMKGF
Cereblon/Casein kinase I alpha (Homo sapiens), sequence (Q96SW2 whole entry partner): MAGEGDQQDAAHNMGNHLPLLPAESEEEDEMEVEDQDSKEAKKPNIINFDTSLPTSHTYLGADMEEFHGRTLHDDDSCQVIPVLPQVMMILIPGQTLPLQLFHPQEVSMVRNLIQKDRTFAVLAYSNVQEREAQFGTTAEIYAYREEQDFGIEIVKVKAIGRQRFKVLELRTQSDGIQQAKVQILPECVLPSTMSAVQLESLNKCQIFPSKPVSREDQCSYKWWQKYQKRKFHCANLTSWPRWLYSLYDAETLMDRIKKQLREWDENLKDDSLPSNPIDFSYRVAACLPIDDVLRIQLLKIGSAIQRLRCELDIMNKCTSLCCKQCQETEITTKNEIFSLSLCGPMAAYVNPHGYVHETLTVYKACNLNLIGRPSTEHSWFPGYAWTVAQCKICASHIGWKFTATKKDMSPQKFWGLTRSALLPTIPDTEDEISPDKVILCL

Protein cereblon/Eukaryotic peptide chain release factor GTP-binding subunit ERF3A (Homo sapiens), sequence (P15170 whole entry, looked up): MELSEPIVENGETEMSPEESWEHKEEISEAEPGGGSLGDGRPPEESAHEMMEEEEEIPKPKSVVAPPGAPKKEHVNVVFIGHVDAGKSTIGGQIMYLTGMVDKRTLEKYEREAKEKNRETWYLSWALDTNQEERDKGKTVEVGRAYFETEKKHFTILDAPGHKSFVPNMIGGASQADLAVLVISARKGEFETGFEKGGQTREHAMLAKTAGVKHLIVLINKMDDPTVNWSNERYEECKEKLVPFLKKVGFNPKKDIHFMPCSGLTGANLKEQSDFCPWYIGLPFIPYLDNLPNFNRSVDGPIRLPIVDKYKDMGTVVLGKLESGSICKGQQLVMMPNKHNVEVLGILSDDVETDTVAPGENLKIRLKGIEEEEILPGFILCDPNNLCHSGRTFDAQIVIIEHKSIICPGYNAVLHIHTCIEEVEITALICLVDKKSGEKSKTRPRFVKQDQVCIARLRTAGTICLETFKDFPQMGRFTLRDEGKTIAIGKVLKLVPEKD
Protein cereblon/Eukaryotic peptide chain release factor GTP-binding subunit ERF3A (Homo sapiens), sequence (Q96SW2 whole entry, looked up): as the sequence (Q96SW2 whole entry partner) above

Activity [1]: inactive | Activity [2]: inactive
Compound: O=C1CC[C@H](N2Cc3c(OCc4ccc(CN5CCOCC5)cc4)cccc3C2=O)C(=O)N1
